Reference: patent US20260022341A1, “METHOD OF GENERATING A HOMOCELLULAR PROGENITOR CELL CULTURE FROM A HETEROCELLULAR TISSUE SAMPLE” (MOSA MEAT B.V., priority 2022, published 2026)
Entries after “also recorded” stand apart in the source; their conditions may differ.

B1: PDGF-bb: growth factor of the base medium (protein, UniProt P01127 82-190, looked up)
Platelet-derived growth …: SLGSLTIAEPAMIAECKTRTEVFEISRRLIDRTNANFLVWPPCVEVQRCSGCCNNRNVQCRPTQVQLRPVQVRKIEIVRKKPIFKKATVTLEDHLACKCETVAAARPVT
B2: vitronectin: extracellular matrix protein used as tissue culture vessel coating (protein, UniProt P04004 20-478, looked up)
Vitronectin: DQESCKGRCTEGFNVDKKCQCDELCSYYQSCCTDYTAECKPQVTRGDVFTMPEDEYTVYDDGEEKNNATVHEQVGGPSLTSDLQAQSKGNPEQTPVLKPEEEAPAPEVGASKPEGIDSRPETLHPGRPQPPAEEELCSGKPFDAFTDLKNGSLFAFRGQYCYELDEKAVRPGYPKLIRDVWGIEGPIDAAFTRINCQGKTYLFKGSQYWRFEDGVLDPDYPRNISDGFDGIPDNVDAALALPAHSYSGRERVYFFKGKQYWEYQFQHQPSQEECEGSSLSAVFEHFAMMQRDSWEDIFELLFWGRTSAGTRQPQFISRDWHGVPGQVDAAMAGRIYISGMAPRPSLAKKQRFRHRNRKGYRSQRGHSRGRNQNSRRPSRATWLSLFSSEESNLGANNYDDYRMDWLVPATCEPIQSVFFFSGDKYYRVNLRTRRVDTVDPPYPRSIAQYWLGCPAPGHL

How the values were obtained:
Assay type in all cases: cell-based, bovine
SCs and FAPs [1] = assay: Compound screening: ratio of SCs in a cell culture of SCs and FAPs after one passage (flow cytometry); settings: SFM1 base medium, HGF 10×=50 ng/ml, IC 50 μM, HC 138 nM, T3 30 nM, DAPT 5 or 10 μM, FGF2 10×=100 ng/ml, SB203580 10 μM, IL6 20 ng/ml, PDGF-bb 10×=50 ng/ml
Description: Excess visible fat and fibrous tissue was removed prior to dissociation, and muscle fibers were dissociated using collagenase AFC A (Worthington, CLSAFA, 2000U/ml) for 45 minutes at 37° C. Muscle isolates were incubated in 1× ACK erythrocyte lysis buffer for 1 minute at room temperature. Cells were resuspended in a serum-free proliferation medium (SFM1 medium) and immediately seeded into fibronectin (4 μg cm-2 bovine fibronectin; F1141, Merck/Sigma) coated tissue culture plates, and pre-cultured at 37° C. for 72 hours. The serum-free proliferation medium that was used is as disclosed in WO 2021/158103, the contents of which are incorporated herein by reference, and is referred to therein as “SFM1” and contains: albumin (5 mg/ml), somatotropin (2 ng/ml), L-Ascorbic acid 2-phosphate (50 μg/ml), hydrocortisone (36 ng/ml), a-linolenic acid (1 μg/ml), insulin (10 μg/ml), transferrin (5.5 μg/ml), sodium selenite (0.0067 μg/ml), ethanolamine (2 μg/ml), L-alanyl-L-glutamine or glutamine (2 mM), IL-6 (5 ng/ml), FGF2 also referred to as bFGF (10 ng/ml), IGF1 (100 ng/ml), VEGF (10 ng/ml), HGF (5 ng/ml), PDGF-bb (10 ng/ml) and DMEM/F12 basal medium. In the experiments described herein, the SFM1 medium is also referred to as control (Ctrl) or base medium.
After 72 hours of pre-culture, FAPS were sorted using a MACSQuant Tyto sorter (Miltenyi) based on absence of expression of JAM1, CD45, and integrin alpha 7 (ITGA7), and the positive expression of integrin alpha 5 (ITGA5). SCs were sorted based on the absence of expression of JAM1, CD45, ITGA5, and the positive expression of ITGA7.
After FACS sorting, FAP cells and SC cells were cultured on collagen Type I coated tissue culture flasks at 37° C. and 5% CO2 in a serum-free proliferation medium (SFM1). Purities of SCs and FAPs were assessed at the end of each passage by measuring the expression of ITGA7 and ITGA5 via flow cytometry as described below.
Sorted SCs and FAPs were stained with ITGA7-PE and […]. Subsequently, cells were washed and analyzed on a MACSQuant 10 flow analyzer (Miltenyi). Unstained cells were used as a negative control, and to define gating parameters. For the compound screenings (FIG. 2A), percentage of SCs relative to FAPs was determined after one culture passage.
These informed the selection of compounds to favor the proliferation of either of the two cell types. Increasing or decreasing the concentration of growth factors targeting these receptors, or adding compounds that target downstream pathways, altered the growth of SCs relative to FAPs (FIG. 2A, FIG. 2B). As only SCs and FAPs were present in the cell cultures of FIG. 2A and 2B, measuring the relative amount (ratio) of SCs likewise provides information about the relative amount (ratio) of FAPs in the respective media. The ratio of SCs in the respective cell media was normalized against a control ratio (Ctrl; set at 1) which means that a promotion of SCs results in an increase of SCs compared to the control culture (>1), whereas a relative decrease of SCs in the medium compared to the control culture (<1) denotes at the same time for a promotion of FAP proliferation in the respective media.

SCs and FAPs [2] = assay: Long-term proliferation assay of SC/FAP mixtures on Laminin 521 with different media (FIGS. 4A-4C); settings: Laminin 521 coating
Description: (§1) Cells were isolated, purified and cultured as described in Example 1. For long-term proliferation assays, mixtures of SCs and FAPs were cultured on different coatings (FIG. 3) or on Laminin 521 with different media (FIGS. 4A-4C). After every passage, the ratio of SCs to FAPs was measured as the ratio of ITGA7+/ITGA5−cells (SCs) to ITGA7−/ITGA5+cells (FAPs) via flow cytometry, as described in Example 1.
Using Laminin 521 as a coating, we further used the previously identified compounds to adapt the base media (Ctrl) to favor the growth of SCs over FAPs (FIGS. 4A-4C).

SCs and FAPs [3] = assay: Long-term proliferation assay of SC/FAP mixtures on different coatings (FIG. 3); settings: compound applied as culture vessel coating, measured after every passage by ITGA7/ITGA5 flow cytometry
Description: as §1
Using long-term proliferation assays, combined with flow cytometry for ITGA7/ITGA5, we tested different compounds including extracellular matrix proteins tissue culture vessel coatings, and measured percentage of SCs over time in a cell culture that contains SCs and FAPs.

[4] = single media adaptation of base media (Ctrl): 10× HGF or T3 added

Molecule	growth of SCs relative to FAPs (ratio of SCs normalized against control ratio, Ctrl set at 1) (SCs and FAPs [1])	percentage of SCs in total cells (SCs and FAPs) over long-term proliferation (SCs and FAPs [3])	further results
hepatocyte growth factor [HGF]	specifically promoted the proliferation of SCs	–	relative growth/proliferation of SCs compared to FAPs (SCs and FAPs [2]; [4]): promoted the relative growth/proliferation of SCs compared to FAPs
Interleukin 6 [IL-6]	specifically promoted the proliferation of FAPs	–	–
Laminin 521: extracellular matrix protein used as tissue culture vessel coating	–	the percentage of SCs remained high	percentage of SCs in total cells (SCs and FAPs) over long-term proliferation (SCs and FAPs [3]; listed as laminin 521): allow for maintaining high percentages of SCs during proliferation
collagen	–	the proportion of FAPs increased quickly over 3 passages	percentage of SCs in total cells (SCs and FAPs) over long-term proliferation (SCs and FAPs [3]; listed as Collagen): favor proliferation of FAPs
COc1ccc2c(c1)c(CC(=O)O)c(C)n2C(=O)c1ccc(Cl)cc1 [IC, Indomethacin]	specifically promoted the proliferation of SCs	–	–
fibroblast growth factor 2 [FGF2]	specifically promoted the proliferation of SCs	–	–
C[S+]([O-])c1ccc(-c2nc(-c3ccc(F)cc3)c(-c3ccncc3)[nH]2)cc1 (stereo not shown) [SB203580, 4-{4-(4-Fluorophenyl)-2-[4-(methanesulfinyl)phenyl]-1H-imidazol-5-yl} pyridine]	specifically promoted the proliferation of SCs	–	–
N[C@@H](Cc1cc(I)c(Oc2ccc(O)c(I)c2)c(I)c1)C(=O)O [T3, Triiodothyronine, reference compound]	specifically promoted the proliferation of SCs	–	relative growth/proliferation of SCs compared to FAPs (SCs and FAPs [2]; [4]): promoted the relative growth/proliferation of SCs compared to FAPs
C[C@]12CCC(=O)C=C1CC[C@@H]1[C@@H]2[C@@H](O)C[C@@]2(C)[C@H]1CC[C@]2(O)C(=O)CO [HC, Hydrocortisone]	specifically promoted the proliferation of SCs	–	–
C[C@H](NC(=O)Cc1cc(F)cc(F)c1)C(=O)N[C@H](C(=O)OC(C)(C)C)c1ccccc1 [DAPT]	specifically promoted the proliferation of SCs	–	–
fibronectin	–	the proportion of FAPs increased quickly over 3 passages; also recorded: favor proliferation of FAPs	–
B1	specifically promoted the proliferation of FAPs	–	relative growth/proliferation of SCs compared to FAPs (SCs and FAPs [2]; single media adaptation 0× PDGF-bb (PDGF-bb absent from base media)): promoted the relative growth/proliferation of SCs compared to FAPs
B2	–	the percentage of SCs remained high	percentage of SCs in total cells (SCs and FAPs) over long-term proliferation (SCs and FAPs [3]; listed as Vitronectin): allow for maintaining high percentages of SCs during proliferation
